# Values of other authors, collected in patent EP1757570A1, “Process for obtaining a purified hydrofluoroalkane with 2 carbon atoms” (Solvay SA, priority 2005, dated 2007).
# Read-outs that look alike come from different tables or passages of the source.
smiles,measurement,setting,value
"CC(C)(C#N)N=NC(C)(C)C#N [AIBN, 2,2'-azobis(isobutyronitrile)]",Half life,65 °C,10 h
same,Half life,82 °C,1 h
same,Half life,120 °C,0.017 h
"O=C(OOC(=O)c1ccccc1)c1ccccc1 [DBP, dibenzoylperoxide]",Half life,"73 °C, in solution in benzene",10 h
same,Half life,"92 °C, in solution in benzene",1 h
same,Half life,"131 °C, in solution in benzene",0.017 h
